From ChEMBL document CHEMBL1158238, “New prenylflavones from the leaves of Epimedium saggitatum” (J Nat Prod, 1996) come the findings set out here.

A word on the pIC50: it is −log10 of the IC50, conventionally taken in molar units. Read a high pIC50 as a low IC50.

For the assay, the system named is Platelet. Nature of the assay: Inhibition of arachidonic acid-induced platelets aggregation by turbidimetry. It is filed as functional, cell-based.

pIC50: −log10 of the molar value.

In turn, `C=C(C)C(O)Cc1cc(-c2cc(=O)c3c(O)cc(O)cc3o2)cc2c1OC(C)(C)C=C2` (configuration not stated) [YINYANGHUO A] showed a negative logarithm of the IC50 (pIC50) of 5.15. As for `C=C(C)C(O)Cc1cc(-c2cc(=O)c3c(O)cc(O)cc3o2)cc(CC=C(C)C)c1O` (configuration not stated) [YINYANGHUO B], the negative logarithm of the IC50 (pIC50) was 5.78. Against the preceding molecule, the pIC50 is 0.63 log units higher.
